In brackets after ≈: the same amount, converted by molar mass.
Biological target: EGFR (UniProt P00533)
Sequence (P00533 whole entry, looked up): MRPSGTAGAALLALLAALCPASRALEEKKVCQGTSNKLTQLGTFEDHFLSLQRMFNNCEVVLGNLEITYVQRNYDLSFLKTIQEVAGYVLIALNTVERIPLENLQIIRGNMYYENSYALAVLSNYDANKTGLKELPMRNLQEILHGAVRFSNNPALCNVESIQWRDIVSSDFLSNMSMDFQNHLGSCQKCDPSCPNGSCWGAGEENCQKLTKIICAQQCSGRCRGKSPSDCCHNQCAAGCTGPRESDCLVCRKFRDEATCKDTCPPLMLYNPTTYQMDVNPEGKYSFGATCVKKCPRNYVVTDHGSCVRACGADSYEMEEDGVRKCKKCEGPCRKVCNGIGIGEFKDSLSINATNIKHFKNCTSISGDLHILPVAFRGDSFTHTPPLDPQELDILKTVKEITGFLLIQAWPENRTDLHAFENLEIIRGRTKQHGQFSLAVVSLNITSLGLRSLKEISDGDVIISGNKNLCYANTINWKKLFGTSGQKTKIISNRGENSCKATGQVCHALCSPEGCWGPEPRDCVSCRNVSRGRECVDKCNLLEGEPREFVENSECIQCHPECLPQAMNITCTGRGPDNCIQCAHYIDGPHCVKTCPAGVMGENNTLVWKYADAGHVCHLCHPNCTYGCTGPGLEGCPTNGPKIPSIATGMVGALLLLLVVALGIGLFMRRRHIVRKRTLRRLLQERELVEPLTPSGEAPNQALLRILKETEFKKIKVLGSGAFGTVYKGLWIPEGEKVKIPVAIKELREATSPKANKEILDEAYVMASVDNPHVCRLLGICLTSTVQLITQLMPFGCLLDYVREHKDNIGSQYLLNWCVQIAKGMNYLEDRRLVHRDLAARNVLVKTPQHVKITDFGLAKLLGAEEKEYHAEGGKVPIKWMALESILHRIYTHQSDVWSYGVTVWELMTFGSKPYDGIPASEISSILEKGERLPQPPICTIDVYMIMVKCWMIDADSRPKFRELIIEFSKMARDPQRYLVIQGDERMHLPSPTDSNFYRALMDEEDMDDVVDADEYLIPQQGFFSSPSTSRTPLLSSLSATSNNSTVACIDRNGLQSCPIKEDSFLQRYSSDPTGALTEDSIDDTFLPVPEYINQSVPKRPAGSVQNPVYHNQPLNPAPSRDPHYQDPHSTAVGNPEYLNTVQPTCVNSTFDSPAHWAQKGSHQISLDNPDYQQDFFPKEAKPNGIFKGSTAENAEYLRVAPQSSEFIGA

SMILES	IC50 [µg/mL]
COc1cc(Nc2ncnc(Nc3nc4ccc(F)cc4s3)n2)cc(OC)c1OC	> 4.5
COc1cc(Nc2ncnc(Nc3cccc(O)c3)n2)cc(OC)c1OC	< 0.4
COc1cc(Nc2ncnc(Nc3[nH]ncc3-c3cccc(Cl)c3)n2)cc(OC)c1OC	> 4.5
COc1cc(Nc2ncnc(Nc3ccccn3)n2)cc(OC)c1OC	> 4.5
COc1cc(Nc2ncnc(-c3cccc(Cl)c3)n2)cc(OC)c1OC	> 4.5
COc1ccc(N(C)c2ncnc(Nc3ccc(OC)c(OC)c3)n2)cc1	< 0.4
COc1cc(Nc2ncnc(Nc3nccs3)n2)cc(OC)c1OC	> 4.5
CCc1ccc(Nc2ncnc(-n3c(N)nc4ccccc43)n2)cc1	0.4 to 2.4 (≈ 1.21 to 7.24 µM)
CCc1ccc(Nc2nc3ccccc3n2-c2ncnc(Nc3cc(OC)c(OC)c(OC)c3)n2)cc1	< 0.4
COc1cc(Nc2ncnc(-c3cccnc3Nc3ccc(Oc4ccccc4)cc3)n2)cc(OC)c1OC	> 4.5
Cc1ccc2c(c1)CCCN2c1ncnc(NCc2ccc(C(=O)O)cc2)n1	> 4.5
COc1cc(Nc2ncnc(-c3c(O)[nH]c4ccccc34)n2)cc(OC)c1OC	> 4.5
Nc1ncnc(Nc2cc(Cl)ccc2O)n1	> 4.5
COC(=O)c1cccc(Nc2ncnc(-n3c(NCc4ccccc4)nc4ccccc43)n2)c1	0.4 to 2.4 (≈ 0.886 to 5.32 µM)
O=c1[nH]c2ccccc2n1-c1ncnc(Nc2cccc(Cl)c2)n1	2.4 to 3.5 (≈ 7.08 to 10.3 µM)
COc1cc(Nc2ncnc(Nc3ccc(N4CCOCC4)cc3)n2)cc(OC)c1OC	> 4.5
Cc1ccc(Cl)cc1Nc1ncnc(Nc2cc(Cl)ccc2C)n1	< 0.4
NC(=O)c1ccc(Nc2ncnc(-c3cccnc3NCc3cccs3)n2)cc1	0.4 to 2.4 (≈ 0.991 to 5.95 µM)
COc1cc(Nc2ncnc(N3CCN(C(=O)OC(C)(C)C)CC3)n2)cc(OC)c1OC	> 4.5
COc1ccc2c(c1)nc(NCc1ccccn1)n2-c1ncnc(Nc2cc(OC)c(OC)c(OC)c2)n1.COc1ccc2nc(NCc3ccccn3)n(-c3ncnc(Nc4cc(OC)c(OC)c(OC)c4)n3)c2c1	> 4.5
Cc1ccc2c(c1)CCCN2c1ncnc(Nc2ccc(F)c(F)c2)n1	0.4 to 2.4 (≈ 1.13 to 6.79 µM)
Cc1cccc(Nc2ncnc(Nc3ccc4[nH]ccc4c3)n2)c1	< 0.4

SMILES	IC50 [µg/mL]
COc1cc(Nc2ncnc(Nc3ccc4nn(C)cc4c3)n2)cc(OC)c1OC	0.4 to 2.4 (≈ 0.982 to 5.89 µM)
O=c1[nH]c2ccccc2n1-c1ncnc(Nc2ccc(-c3cnco3)cc2)n1	> 4.5
COc1cc(Nc2ncnc(N)n2)cc(OC)c1OC	> 4.5
COc1ccc(Nc2ncnc(Nc3ccc(C)c(O)c3)n2)cc1OC	< 0.4
COc1ccc(Nc2ncnc(Nc3ccc4[nH]ccc4c3)n2)cc1OC	< 0.4
COc1ccc(Nc2ncnc(Nc3cc(Cl)cc(Cl)c3)n2)cc1OC	2.4 to 3.5 (≈ 6.12 to 8.92 µM)
C#Cc1cccc(Nc2ncnc(Nc3cc(-c4ccccc4)n[nH]3)n2)c1	0.4 to 2.4 (≈ 1.13 to 6.79 µM)
O=c1[nH]c2ccccc2n1-c1ncnc(Nc2ccccc2[N+](=O)[O-])n1	> 4.5
COCCOc1ccc(Nc2ncnc(Nc3ccc(C)c(F)c3)n2)cc1OCCOC	> 4.5
CC(C)(C)OC(=O)Nc1ccc(Nc2ncnc(Nc3ccc(OCc4ccccc4)cc3)n2)cc1	> 4.5
Cc1nccc(-c2cccc(Nc3ncnc(Nc4ccc5c(cnn5Cc5ccccc5)c4)n3)c2)n1	< 0.4
COc1cc(Nc2ncnc(Nc3cc(OC)c(OC)c(OC)c3)n2)ccc1OCCN1CCOCC1	0.4 to 2.4 (≈ 0.78 to 4.68 µM)
COc1cc(Nc2ncnc(-n3c(NCCCCO)nc4ccccc43)n2)cc(OC)c1OC	> 4.5
CN(c1ccc2c(cnn2Cc2ccccc2)c1)c1ncnc(Nc2cccc(Cc3nnn[nH]3)c2)n1	< 0.4
FC(F)C(F)(F)Oc1cccc(Nc2ncnc(-c3cccs3)n2)c1	> 4.5
c1ccc(-c2ncnc(Nc3ccc(OCCCN4CCOCC4)cc3)n2)cc1	> 4.5
COc1ccc(Nc2ncnc(N(C)C3CCN(C)CC3)n2)cc1OC	> 4.5
Nc1nc2ccccc2n1-c1ncnc(Nc2cccc(Cn3ccnn3)c2)n1	2.4 to 3.5 (≈ 6.24 to 9.1 µM)
COc1cc(Nc2ncnc(-c3cccnc3NCCN3CCCCC3)n2)cc(OC)c1OC	> 4.5
COC(=O)c1ccc(Nc2ncnc(Nc3cc(-c4ccco4)n[nH]3)n2)cc1	> 4.5
c1ccc(CNc2ncnc(Nc3cc(-c4ccco4)n[nH]3)n2)nc1	0.4 to 2.4 (≈ 1.2 to 7.18 µM)
COc1cc(Nc2ncnc(N3CCCC3)n2)cc(OC)c1OC	> 4.5

SMILES	IC50 [µg/mL]
COc1cc(Nc2ncnc(-c3cc4ccccc4s3)n2)cc(OC)c1OC	> 4.5
Nc1nc2ccccc2n1-c1ncnc(Nc2ccccn2)n1	> 4.5
COc1cc(Nc2ncnc(Nc3ccncc3)n2)cc(OC)c1OC	> 4.5
COc1ccc(Nc2ncnc(N(C)c3ccccc3Cl)n2)cc1OC	< 0.4
Nc1ncnc(Nc2ccc3c(c2)OCO3)n1	3.5 to 4.5 (≈ 15.1 to 19.5 µM)
Fc1ccc(Nc2ncnc(Nc3ccc4cn[nH]c4c3)n2)cc1Cl	< 0.4
COc1cc(Nc2ncnc(-n3ccc4cc(O)ccc43)n2)cc(OC)c1OC	> 4.5
COc1cc(Nc2ncnc(Nc3ccccc3C)n2)cc(OC)c1OC	2.4 to 3.5 (≈ 6.53 to 9.53 µM)
COc1ccc([C@H](C)Nc2nc3ccccc3n2-c2ncnc(Nc3cc(OC)c(OC)c(OC)c3)n2)cc1	> 4.5
COc1cc(Nc2ncnc(-n3c(Nc4ccccc4)nc4ccccc43)n2)cc(OC)c1OC	> 4.5
COc1ccc(Nc2ncnc(N(C)c3ccc(F)cc3F)n2)cc1OC	< 0.4
CC(C)(C)c1cc(Nc2ncnc(Nc3cccc(CC(=O)O)c3)n2)[nH]n1	0.4 to 2.4 (≈ 1.09 to 6.53 µM)
COc1cc(Nc2ncnc(Nc3nc4ccccc4n3C)n2)cc(OC)c1OC	> 4.5
O=C(O)Cc1cccc(Nc2ncnc(Nc3cccc(Br)c3)n2)c1	< 0.4
COc1ccc(Nc2ncnc(N(C)c3ccccc3)n2)cc1OC	< 0.4
COc1ccc(N(C)c2ncnc(-n3c(N)nc4ccccc43)n2)cc1	> 4.5
COc1cc(Nc2ncnc(Cl)n2)cc(OC)c1OC	> 4.5
COc1cc(Nc2ncnc(-n3cnc4ccccc43)n2)cc(OC)c1OC	3.5 to 4.5 (≈ 9.25 to 11.9 µM)
COc1cc(Nc2ncnc(-n3c(NC4c5ccccc5CC4O)nc4ccccc43)n2)cc(OC)c1OC (stereo unspecified)	> 4.5
COc1cc(Nc2ncnc(Nc3cc(-c4cccc(C)c4)n[nH]3)n2)cc(OC)c1OC	0.4 to 2.4 (≈ 0.923 to 5.54 µM)
COc1ccc(CNc2ncnc(Nc3cc(-c4ccco4)n[nH]3)n2)cc1	> 4.5
COc1ccc(CNc2nc3cc(OC)ccc3n2-c2ncnc(Nc3cc(OC)c(OC)c(OC)c3)n2)cc1.COc1ccc(CNc2nc3ccc(OC)cc3n2-c2ncnc(Nc3cc(OC)c(OC)c(OC)c3)n2)cc1	> 4.5

SMILES	IC50 [µg/mL]
COc1cc(Nc2ncnc(Nc3cc(C(F)(F)F)ccc3F)n2)cc(OC)c1OC	< 0.4
COc1cc(Nc2ncnc(N(CCO)c3ccccc3)n2)cc(OC)c1OC	< 0.4
COc1cc(Nc2nc(F)nc(Nc3cccc(OC(F)(F)F)c3)n2)cc(OC)c1OC	< 0.4
COc1ccc2[nH]cc(CCNc3ncnc(Nc4ccc(OC)c(OC)c4)n3)c2c1	> 4.5
CN(c1cccc(Cl)c1)c1ncnc(Nc2ccc(S(C)(=O)=O)cc2)n1	< 0.4
O=C(O)/C=C/c1ccc(Nc2ncnc(Nc3cc(-c4ccco4)[nH]n3)n2)cc1	< 0.4
COc1cc(Nc2ncnc(-c3cccnc3NCCCN)n2)cc(OC)c1OC	> 4.5
COCCOc1ccc(Nc2ncnc(Nc3ccc(C)c(O)c3)n2)cc1OCCOC	0.4 to 2.4 (≈ 0.906 to 5.44 µM)
CN(c1cccc(Cl)c1)c1ncnc(Nc2cccc(Br)c2)n1	< 0.4
CN(c1ccc2c(cnn2Cc2ccccc2)c1)c1ncnc(Nc2cccc(Cn3ccnn3)c2)n1	< 0.4
N#CCc1ccc(Nc2ncnc(Nc3ccc4c(cnn4Cc4ccccc4)c3)n2)cc1	< 0.4
COc1cc(Nc2ncnc(Nc3ccc(Oc4ccccc4)cc3)n2)cc(OC)c1OC	< 0.4
CC(=O)Nc1ccc(Nc2ncnc(-n3c(N)nc4ccccc43)n2)cc1	> 4.5
COc1cc(Nc2ncnc(-c3cccnc3Nc3ccc(C(C)=O)cc3)n2)cc(OC)c1OC	> 4.5
COc1cc(Nc2ncnc(-n3c(Cl)nc4ccccc43)n2)cc(OC)c1OC	> 4.5
CC(C)Nc1ncccc1-c1ncnc(Nc2ccc(C(N)=O)cc2)n1	> 4.5
COc1cc(Nc2ncnc(Nc3nc4ccccc4s3)n2)cc(OC)c1OC	> 4.5
COc1cc(Nc2ncnc(-n3c(NCc4ncccc4C)nc4ccccc43)n2)cc(OC)c1OC	> 4.5
COc1ccc(Nc2ncnc(-n3c(=O)[nH]c4ccccc43)n2)cn1	> 4.5
COc1cc(Nc2ncnc(-n3c(NCCc4ccccn4)nc4ccccc43)n2)cc(OC)c1OC	> 4.5
COc1cc(Nc2ncnc(-n3c(NC4CCc5ccccc54)nc4ccccc43)n2)cc(OC)c1OC (stereo unspecified)	2.4 to 3.5 (≈ 4.71 to 6.87 µM)
COc1cc(Nc2ncnc(Nc3ccc(F)cc3)n2)cc(OC)c1OC	0.4 to 2.4 (≈ 1.08 to 6.46 µM)

SMILES	IC50 [µg/mL]
COc1cc(Nc2ncnc(-n3cccc3)n2)cc(OC)c1OC	> 4.5
COc1cc(Nc2ncnc(Nc3cc(F)ccc3F)n2)cc(OC)c1OC	0.4 to 2.4 (≈ 1.03 to 6.16 µM)
COc1cc(Nc2ncnc(-c3cccnc3Nc3cccc4c3CCCC4)n2)cc(OC)c1OC	> 4.5
COc1cc(Nc2ncnc(-n3ncc4ccccc43)n2)cc(OC)c1OC	> 4.5
COc1ccc(Nc2ncnc(N(C)c3ccc(C(=O)O)cc3)n2)cc1OC	> 4.5
COc1ccc(-c2cc(Nc3ncnc(Nc4cc(OC)c(OC)c(OC)c4)n3)[nH]n2)cc1	0.4 to 2.4 (≈ 0.89 to 5.34 µM)
COC(=O)c1ccc(-c2cc(Nc3ncnc(NCCN4CCOCC4)n3)[nH]n2)cc1	2.4 to 3.5 (≈ 5.65 to 8.25 µM)
CC(=O)NCc1ccc(Nc2ncnc(Nc3cc(-c4ccco4)n[nH]3)n2)cc1	0.4 to 2.4 (≈ 1.02 to 6.15 µM)
COC(=O)C(c1ccccc1)c1ncnc(Nc2cc(OC)c(OC)c(OC)c2)n1 (stereo unspecified)	> 4.5
COC(=O)c1ccc(-c2cc(Nc3ncnc(NC4=NC(=O)CS4)n3)[nH]n2)cc1	0.4 to 2.4 (≈ 0.975 to 5.85 µM)
CCN(c1ccc(C)cc1)c1ncnc(Nc2cc(OC)c(OC)c(OC)c2)n1	< 0.4
COc1cc(Nc2ncnc(-n3c(Nc4ccc5[nH]ccc5c4)nc4ccccc43)n2)cc(OC)c1OC	3.5 to 4.5 (≈ 6.88 to 8.85 µM)
c1ccc(Nc2ncccc2-c2ncnc(Nc3ccc4[nH]ncc4c3)n2)cc1	3.5 to 4.5 (≈ 9.2 to 11.8 µM)
Clc1cccc(Nc2ncnc(Nc3cc(-c4ccccc4)n[nH]3)n2)c1	< 0.4
Oc1cccc(Nc2ncnc(-c3ccccc3)n2)c1	> 4.5
COc1cc(Nc2ncnc(N[C@H](CO)c3ccccc3)n2)cc(OC)c1OC	0.4 to 2.4 (≈ 1.01 to 6.04 µM)
COCCNc1ncnc(Nc2cc(-c3ccc(C(=O)OC)cc3)n[nH]2)n1	> 4.5
COc1cc(Nc2ncnc(-n3c(Nc4ccc(C(C)C)cc4)nc4ccccc43)n2)cc(OC)c1OC	> 4.5
